Legend:
DAPK1 = assay: Decitabine treatment of Raji cells, RT-PCR for DAPK1; type: cell-based; conditions: for 3, 6, 9, and 12 days
Text: Next we treated Raji cells with 0.51.LM Decitabine for 3, 6, 9, and 12 days.
Blood was obtained from patients with B-cell CLL through the CLL Research Consortium (CRC), from the Ohio State University and Uppsala University tissue banks. CLL patients from OSU and CRC consortium and healthy volunteers provided written informed consent using Institutional Review Board-approved protocols. Written consent for Uppsala samples was provided according to the declaration of Helsinki. Seven CD 19+ selected CLL samples were obtained by positive selection using magnetic beads conjugated to anti-CD19 (MACS, Miltenyi Biotec, Auburn Calif.). The resulting cells are at least 95% CD19 positive. All patients had immunophenotypically defined CLL as outlined by the modified 96 NCI criteria (Cheson et al., 1996) and for Uppsala samples, according to WHO classification. The CLL cell line WaC3CD5, described previously (Wendel-Hansen et al., 1994), Jurkat, Raji and lymphoblastoid cell lines were incubated (37° C. and 5% C02) in RPMI 1640 supplemented with 10% FBS (HyClone Laboratories, Logan, Utah), 2 mM L-glutamine, 100 U/ml penicillin, and 100 μg/ml streptomycin (all from Invitrogen, Carlsbad Calif.). […]
Semi-quantitative RT-PCR was performed as described previously (Liu et al., 2006). […] The expression data was analyzed by comparative Ct method. […]

DAPK1 promoter = assay: Bisulfite sequencing of the BS1 region of Decitabine-treated Raji cells; type: cell-based; conditions: Decitabine 0.5 μM, untreated 55%
Procedure: FIG. 2F—Bisulfite treatment for untreated and 6 and 12 days 5-aza-2′-deoxycytidine treated (0.5 μM) Raji cells. Bisulfite treated DNA was amplified for the BS1 region (c.1-1509 to c.1-1262) comprising 30 CpGs and cloned. Sequencing was done for 7-10 clones for each sample. Each row represents a clone. The open circles indicate unmethylated CpG, and closed circles indicate methylated CpG. The overall methylation frequency is given in (%) on the right.
One microgram of genomic DNA was treated with sodium […] according to published protocols (Herman et al., 1996). Regions BS1 and BS2 were amplified (primers are available upon request). The PCR product was purified using the Qiagen Gel Extraction kit (Qiagen, Chatsworth, Calif.) according to the manufacturer's protocol and subcloned using the TOPO TA-Cloning kit (Invitrogen) followed by sequencing of 8-10 clones for each sample using ABI big dye technology.

## Nc1ncn([C@H]2C[C@H](O)[C@@H](CO)O2)c(=O)n1 [Decitabine, 5-aza-2′-deoxycytidine]
DAPK1
  DAPK1 expression (RT-PCR): gradual up-regulation of DAPK1 expression
DAPK1 promoter; day 6 (70/240)
  DNA methylation of CpG dinucleotides, BS1 region: 29%
DAPK1 promoter; day 12 (68/270)
  DNA methylation of CpG dinucleotides, BS1 region: 25%
